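A five-concentration, 48-hour dose response in 96-well plates underlies each endpoint, interpolated linearly between surrounding concentrations. GI50 = concentration required for 50% inhibition of growth.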 Activity calls are given as the source filed them. Rule as the data show it: active = GI50 up to about 1.1 µM and inactive = higher.
How the values were obtained:
Assay in all cases: NCI tumour cell line growth inhibition, 48 h
[1] = test system: 786-0
[2] = test system: A498
[3] = test system: A549
[4] = test system: ACHN
[5] = test system: BT-549
[6] = test system: CAKI-1
[7] = test system: CCRF-CEM
[8] = test system: COLO 205
[9] = test system: DU-145
[10] = test system: EKVX
[11] = test system: HCT-116
[12] = test system: HCT-15
[13] = test system: HL-60
[14] = test system: HOP-62
[15] = test system: HOP-92
[16] = test system: HT-29
[17] = test system: Hs-578T
[18] = test system: IGROV-1
[19] = test system: K562
[20] = test system: KM12
[21] = test system: LOX IMVI
[22] = test system: M14
[23] = test system: MCF7
[24] = test system: MDA-MB-231
[25] = test system: MDA-MB-435
[26] = test system: MDA-N
[27] = test system: MOLT-4
[28] = test system: Malme-3M
[29] = test system: NCI-H226
[30] = test system: NCI-H23
[31] = test system: NCI-H460
[32] = test system: NCI-H522
[33] = test system: NCI/ADR-RES
[34] = test system: OVCAR-3
[35] = test system: OVCAR-4
[36] = test system: OVCAR-5
[37] = test system: OVCAR-8
[38] = test system: PC-3
[39] = test system: RPMI-8226
[40] = test system: RXF 393
[41] = test system: SF-268
[42] = test system: SF-295
[43] = test system: SF-539
[44] = test system: SK-MEL-28
[45] = test system: SK-MEL-2
[46] = test system: SK-MEL-5
[47] = test system: SK-OV-3
[48] = test system: SN12C
[49] = test system: SNB-19
[50] = test system: SNB-75
[51] = test system: SR
[52] = test system: SW-620
[53] = test system: T47D
[54] = test system: TK-10
[55] = test system: U-251
[56] = test system: UACC-257
[57] = test system: UO-31
[58] = test system: HCC 2998
[59] = test system: UACC-62

**Q.** For `NC(=S)N/N=C\c1ccc(OCc2cccc(COc3ccc(/C=N/NC(N)=S)cc3)n2)cc1`, which GI50 [1] is on record?
**A.** > 100 µM (inactive)

**Q.** And the GI50 [2]?
**A.** > 100 µM (inactive)

**Q.** And the GI50 [3]?
**A.** > 100 µM (inactive)

**Q.** And the GI50 [4]?
**A.** 9.53 µM (inactive)

**Q.** What about the GI50 [5] of the same compound?
**A.** 2.39 µM (inactive)

**Q.** What about the GI50 [6] of the same compound?
**A.** 17 µM (inactive)

**Q.** And the GI50 [7]?
**A.** 45.7 µM (inactive)

**Q.** And the GI50 [8]?
**A.** 5.73 µM (inactive)

**Q.** And the GI50 [9]?
**A.** 34.8 µM (inactive)

**Q.** What about the GI50 [10] of the same compound?
**A.** > 100 µM (inactive)

**Q.** And the GI50 [11]?
**A.** 12 µM (inactive)

**Q.** What about the GI50 [12] of the same compound?
**A.** 43.7 µM

**Q.** And the GI50 [13]?
**A.** 10.5 µM (inactive)

**Q.** And the GI50 [14]?
**A.** > 100 µM (inactive)

**Q.** And the GI50 [15]?
**A.** > 100 µM (inactive)

**Q.** And the GI50 [16]?
**A.** > 100 µM (inactive)

**Q.** And the GI50 [17]?
**A.** > 100 µM (inactive)

**Q.** What about the GI50 [18] of the same compound?
**A.** 14.8 µM (inactive)

**Q.** And the GI50 [19]?
**A.** 18.6 µM (inactive)

**Q.** What about the GI50 [20] of the same compound?
**A.** > 100 µM (inactive)

**Q.** And the GI50 [21]?
**A.** > 100 µM (inactive)

**Q.** And the GI50 [22]?
**A.** 43.4 µM (inactive)

**Q.** What about the GI50 [23] of the same compound?
**A.** 32.5 µM (inactive)

**Q.** What about the GI50 [24] of the same compound?
**A.** 5.25 µM (inactive)

**Q.** And the GI50 [25]?
**A.** 63.8 µM (inactive)

**Q.** And the GI50 [26]?
**A.** 56.8 µM (inactive)

**Q.** And the GI50 [27]?
**A.** 34.7 µM (inactive)

**Q.** And the GI50 [28]?
**A.** 86.5 µM (inactive)

**Q.** What about the GI50 [29] of the same compound?
**A.** > 100 µM (inactive)

**Q.** And the GI50 [30]?
**A.** 69.3 µM (inactive)

**Q.** And the GI50 [31]?
**A.** > 100 µM (inactive)

**Q.** And the GI50 [32]?
**A.** 2.88 µM (inactive)

**Q.** And the GI50 [33]?
**A.** > 100 µM (inactive)

**Q.** What about the GI50 [34] of the same compound?
**A.** 32.7 µM (inactive)

**Q.** And the GI50 [35]?
**A.** 44.2 µM (inactive)

**Q.** And the GI50 [36]?
**A.** 17.3 µM (inactive)

**Q.** And the GI50 [37]?
**A.** > 100 µM (inactive)

**Q.** What about the GI50 [38] of the same compound?
**A.** 21.6 µM (inactive)

**Q.** And the GI50 [39]?
**A.** 4.33 µM (inactive)

**Q.** What about the GI50 [40] of the same compound?
**A.** 1.63 µM (inactive)

**Q.** And the GI50 [41]?
**A.** > 100 µM (inactive)

**Q.** And the GI50 [42]?
**A.** > 100 µM (inactive)

**Q.** And the GI50 [43]?
**A.** > 100 µM (inactive)

**Q.** And the GI50 [44]?
**A.** 22.9 µM (inactive)

**Q.** What about the GI50 [45] of the same compound?
**A.** 12.5 µM (inactive)

**Q.** And the GI50 [46]?
**A.** 5.06 µM (inactive)

**Q.** What about the GI50 [47] of the same compound?
**A.** > 100 µM (inactive)

**Q.** And the GI50 [48]?
**A.** > 100 µM (inactive)

**Q.** And the GI50 [49]?
**A.** > 100 µM (inactive)

**Q.** What about the GI50 [50] of the same compound?
**A.** > 100 µM (inactive)

**Q.** What about the GI50 [51] of the same compound?
**A.** 38.7 µM (inactive)

**Q.** What about the GI50 [52] of the same compound?
**A.** > 100 µM (inactive)

**Q.** And the GI50 [53]?
**A.** 0.164 µM (active)

**Q.** And the GI50 [54]?
**A.** 76.7 µM (inactive)

**Q.** And the GI50 [55]?
**A.** 45.4 µM (inactive)

**Q.** What about the GI50 [56] of the same compound?
**A.** 20.2 µM (inactive)

**Q.** And the GI50 [57]?
**A.** 15.3 µM (inactive)

**Q.** `O=S(=O)(c1ccccc1)N1CCN(S(=O)(=O)c2ccccc2)c2ccccc21` was tested. Which GI50 [1] did it give?
**A.** > 100 µM (inactive)

**Q.** What about the GI50 [2] of the same compound?
**A.** > 100 µM (inactive)

**Q.** What about the GI50 [3] of the same compound?
**A.** > 100 µM (inactive)

**Q.** And the GI50 [4]?
**A.** > 100 µM (inactive)

**Q.** And the GI50 [5]?
**A.** > 100 µM (inactive)

**Q.** And the GI50 [6]?
**A.** > 100 µM (inactive)

**Q.** And the GI50 [8]?
**A.** > 100 µM (inactive)

**Q.** What about the GI50 [9] of the same compound?
**A.** > 100 µM (inactive)

**Q.** What about the GI50 [10] of the same compound?
**A.** 31 µM (inactive)

**Q.** And the GI50 [58]?
**A.** > 100 µM (inactive)

**Q.** What about the GI50 [11] of the same compound?
**A.** 45.2 µM (inactive)

**Q.** What about the GI50 [12] of the same compound?
**A.** 92.7 µM

**Q.** And the GI50 [14]?
**A.** > 100 µM (inactive)

**Q.** What about the GI50 [15] of the same compound?
**A.** > 100 µM (inactive)

**Q.** And the GI50 [16]?
**A.** 93.5 µM (inactive)

**Q.** And the GI50 [17]?
**A.** > 100 µM (inactive)

**Q.** What about the GI50 [18] of the same compound?
**A.** > 100 µM (inactive)

**Q.** And the GI50 [19]?
**A.** 96.4 µM (inactive)

**Q.** And the GI50 [20]?
**A.** > 100 µM (inactive)

**Q.** What about the GI50 [21] of the same compound?
**A.** > 100 µM (inactive)

**Q.** And the GI50 [22]?
**A.** 96.6 µM (inactive)

**Q.** What about the GI50 [23] of the same compound?
**A.** 91.8 µM (inactive)

**Q.** And the GI50 [24]?
**A.** > 100 µM (inactive)

**Q.** And the GI50 [25]?
**A.** > 100 µM (inactive)

**Q.** What about the GI50 [26] of the same compound?
**A.** 89.5 µM (inactive)

**Q.** And the GI50 [28]?
**A.** > 100 µM (inactive)

**Q.** And the GI50 [29]?
**A.** > 100 µM (inactive)

**Q.** What about the GI50 [30] of the same compound?
**A.** 52.1 µM (inactive)

**Q.** And the GI50 [31]?
**A.** > 100 µM (inactive)

**Q.** What about the GI50 [32] of the same compound?
**A.** 42.5 µM (inactive)

**Q.** What about the GI50 [33] of the same compound?
**A.** 95.7 µM (inactive)

**Q.** And the GI50 [34]?
**A.** > 100 µM (inactive)

**Q.** And the GI50 [35]?
**A.** > 100 µM (inactive)

**Q.** And the GI50 [36]?
**A.** > 100 µM (inactive)

**Q.** What about the GI50 [37] of the same compound?
**A.** > 100 µM (inactive)

**Q.** And the GI50 [38]?
**A.** > 100 µM (inactive)

**Q.** And the GI50 [39]?
**A.** > 100 µM (inactive)

**Q.** What about the GI50 [40] of the same compound?
**A.** > 100 µM (inactive)

**Q.** What about the GI50 [41] of the same compound?
**A.** > 100 µM (inactive)

**Q.** What about the GI50 [42] of the same compound?
**A.** 81.8 µM (inactive)

**Q.** What about the GI50 [43] of the same compound?
**A.** > 100 µM (inactive)

**Q.** What about the GI50 [44] of the same compound?
**A.** > 100 µM (inactive)

**Q.** What about the GI50 [45] of the same compound?
**A.** > 100 µM (inactive)

**Q.** What about the GI50 [46] of the same compound?
**A.** 73.3 µM (inactive)

**Q.** And the GI50 [47]?
**A.** > 100 µM (inactive)

**Q.** What about the GI50 [48] of the same compound?
**A.** > 100 µM (inactive)

**Q.** What about the GI50 [49] of the same compound?
**A.** > 100 µM (inactive)

**Q.** And the GI50 [50]?
**A.** > 100 µM (inactive)

**Q.** What about the GI50 [51] of the same compound?
**A.** > 100 µM (inactive)

**Q.** What about the GI50 [52] of the same compound?
**A.** > 100 µM (inactive)

**Q.** And the GI50 [53]?
**A.** > 100 µM (inactive)

**Q.** And the GI50 [54]?
**A.** > 100 µM (inactive)

**Q.** And the GI50 [55]?
**A.** > 100 µM (inactive)

**Q.** What about the GI50 [56] of the same compound?
**A.** 75.5 µM (inactive)

**Q.** And the GI50 [59]?
**A.** 64.7 µM (inactive)

**Q.** And the GI50 [57]?
**A.** > 100 µM (inactive)

— ChEMBL document CHEMBL1201862, “PubChem BioAssay data set” (2004)
